In PMC11428215, “Unveiling a New Antimicrobial Peptide with Efficacy against P. aeruginosa and K. pneumoniae from Mangrove-Derived Paenibacillus thiaminolyticus NNS5-6 and Genomic Analysis” (Antibiotics, 2024):
Where two headings read alike, the source gives them in different places. No end group written: not given here.

Tests used:
K. pneumoniae TISTR 1383 [1] = test: Sytox Green uptake assay (cell membrane permeability); type: cell-based, Klebsiella pneumoniae; conditions: 2× MIC; Sytox Green 10 µM, over 24 h; mean ± SD, triplicate
Method: The cell suspension was diluted with the diluent until the OD at 625 nm was equal to 0.1 (1.5 × 10^8 CFU/mL). An aliquot of the diluted cells (100 μL) was introduced into each well and incubated with 10 μM of Sytox Green (Thermo Fisher Scientific Inc., Waltham, MA, USA) in the dark for 15 min. […] After the introduction of the AMP, the cell membrane permeability of treated bacteria was evaluated by monitoring the fluorescence intensity resulting from the penetration of Sytox Green across the compromised cell membrane and subsequently binding to nucleic acid. […] Significant differences in fluorescence intensity of overall time points were analyzed by one-way ANOVA (p-value < 0.05) and post hoc Tukey’s test for multiple comparisons between treated and non-treated conditions [52].

P. aeruginosa TISTR 357 [2] = test: Stability against temperatures, residual antibacterial activity; type: physicochemical, Pseudomonas aeruginosa; conditions: AMP 16 µg/mL, agar well diffusion read-out, % of non-treated AMP, mean ± SD, n = 3
Method: (§3) The AMP was dissolved in sterile purified water and adjusted a final concentration to 16 µg/mL. The sensitivity of the AMP to temperatures of 37, 40, 50, 60, 80, and 100 °C, as well as autoclaving at 121 °C for 15 and 30 min was evaluated. The sensitivity of the AMP to proteolytic enzymes with different digesting characteristics was studied by incubating with a concentration of 1 mg/mL of proteinase K, trypsin, and α-chymotrypsin (Sigma-Aldrich, Warren, MI, USA). The compatibility of the AMP with surfactants was evaluated by exposing the AMP to 1% SDS or 1% Triton X-100 (AppliChem GmbH, Darmstadt, Germany). The degradation of the AMP under various pH conditions, including physiological and extended alkaline conditions, was evaluated by adjusting the pH of the solution to 1.2, 4.5, 6.8, 7.4, 8.0, 10.0, 12.0, and 14.0. After incubation, the pH of the AMP solution was neutralized to the original pH before being assessed for antibacterial activity. The antibacterial assay against P. aeruginosa TISTR 357 was conducted using the agar well diffusion assay in triplicate. The stability profiles are presented as the percentage of the residual activity compared with the non-treatment conditions (mean ± SD), and statistical significance was determined by the Student’s t-test at a p-value < 0.05.

P. aeruginosa TISTR 357 [3] = type: cell-based, Pseudomonas aeruginosa; conditions: TISTR 357, 24 h
Method: (§1) The MIC and MBC of the purified AMP were determined using the broth microdilution method following the guidance provided by the Clinical and Laboratory Standards Institute (CLSI). P. aeruginosa TISTR 357 and K. pneumoniae TISTR 1383 were cultured on MH agar and incubated at 37 °C for 18 h. A single colony of the tested bacteria was suspended in 0.85% NaCl until the suspension turbidity reached an OD of 0.1 at 625 nm. The cells were then diluted to 5 × 10^6 CFU/mL using cation-adjusted Mueller Hinton broth (CAMHB). The diluted cell suspension of 10 µL was transferred into each well of a 96-well plate with a final volume of 100 µL per well. The AMP was added to achieve final concentrations ranging from 0.125 to 64 µg/mL. Colistin was used as the positive control, while antibiotic-free samples were used as negative controls. The 96-well plate was incubated at 37 °C for 24 h. Each strain was tested in triplicate. […] Subsequently, 100 µL of each dilution was spread on MH agar and then incubated at 37 °C for 24 h. The MBC was identified as the lowest concentration at which no bacterial colony growth was observed on the agar plate.

P. aeruginosa TISTR 357 [4] = test: Compatibility with surfactants, residual antibacterial activity; type: physicochemical, Pseudomonas aeruginosa; conditions: AMP 16 µg/mL, agar well diffusion read-out, % of non-treated AMP, mean ± SD, n = 3
Method: as §3

P. aeruginosa TISTR 357 [5] = test: Time-kill assay; type: cell-based, Pseudomonas aeruginosa; conditions: for reduction rate of viable cells: from initial treatment until eradication, 5 × 10^5 CFU/mL, CAMHB, 37 °C
Method: (§2) P. aeruginosa TISTR 357 and K. pneumoniae TISTR 1383 were separately adjusted to an initial treatment cell density of 5 × 10^5 CFU/mL with CAMHB. The experiment preparation followed the microdilution assay procedures. […] The reactions were carried out at 37 °C, followed by spreading the entire volume from each well in each treatment condition on MH agar at specific time intervals (0–24 h). The plates were placed in a 37 °C incubator for 24 h before counting the colonies. The trends in bacterial reduction were graphically depicted using a logarithmic scale of viable cells. The bacterial cell reduction was determined within 24 h. Each experiment was performed in triplicate on the 96-well plates.

α-chymotrypsin = α-chymotrypsin (Bos taurus, UniProt P00766); conditions: α-chymotrypsin 1 mg/mL, AMP 16 µg/mL, agar well diffusion read-out, % of non-treated AMP, mean ± SD, n = 3
Method: as §3

K. pneumoniae TISTR 1383 [6] = test: Time-kill assay; type: cell-based, Klebsiella pneumoniae; conditions: for reduction rate of viable cells: 5 × 10^5 CFU/mL, CAMHB, 37 °C
Method: as §2

K. pneumoniae TISTR 1383 [7] = type: cell-based, Klebsiella pneumoniae; conditions: TISTR 1383, 24 h
Method: as §1

P. aeruginosa TISTR 357 [8] = test: Stability against pH, residual antibacterial activity; type: physicochemical, Pseudomonas aeruginosa; conditions: neutralized before assay, AMP 16 µg/mL, agar well diffusion read-out, % of non-treated AMP, mean ± SD, n = 3
Method: as §3

Proteinase K = Proteinase K (Parengyodontium album, UniProt P06873); conditions: Proteinase K 1 mg/mL, AMP 16 µg/mL, agar well diffusion read-out, % of non-treated AMP, mean ± SD, n = 3
Proteinase K, sequence (P06873 106-384): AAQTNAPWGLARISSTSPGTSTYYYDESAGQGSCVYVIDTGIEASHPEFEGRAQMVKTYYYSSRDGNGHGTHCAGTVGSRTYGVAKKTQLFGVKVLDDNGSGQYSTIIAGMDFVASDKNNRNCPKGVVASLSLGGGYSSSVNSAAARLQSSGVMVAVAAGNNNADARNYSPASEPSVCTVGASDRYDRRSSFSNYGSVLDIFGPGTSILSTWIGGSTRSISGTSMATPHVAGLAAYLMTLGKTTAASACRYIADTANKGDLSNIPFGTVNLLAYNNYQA
Method: as §3

## VKGDGGPGTVYTM [NNS5-6 AMP]
K. pneumoniae TISTR 1383 [1]
  fold increase in fluorescence intensity compared with non-treatment: 3.21 ± 0.29 fold
P. aeruginosa TISTR 357 [2]; 37 °C, 1 h
  % Residual Activity of NNS5-6 AMP against P. aeruginosa TISTR 357: 99.39 ± 1.98%
P. aeruginosa TISTR 357 [2]; 37 °C, 6 h
  % Residual Activity of NNS5-6 AMP against P. aeruginosa TISTR 357: 99.39 ± 0.61%
P. aeruginosa TISTR 357 [2]; 37 °C, 12 h
  % Residual Activity of NNS5-6 AMP against P. aeruginosa TISTR 357: 99.69 ± 0.95%
P. aeruginosa TISTR 357 [2]; 40 °C, 1 h
  % Residual Activity of NNS5-6 AMP against P. aeruginosa TISTR 357: 99.80 ± 0.94%
P. aeruginosa TISTR 357 [2]; 40 °C, 6 h
  % Residual Activity of NNS5-6 AMP against P. aeruginosa TISTR 357: 99.19 ± 0.93%
P. aeruginosa TISTR 357 [2]; 40 °C, 12 h
  % Residual Activity of NNS5-6 AMP against P. aeruginosa TISTR 357: 99.07 ± 0.72%
P. aeruginosa TISTR 357 [2]; 50 °C, 1 h
  % Residual Activity of NNS5-6 AMP against P. aeruginosa TISTR 357: 65.16 ± 3.07 %
P. aeruginosa TISTR 357 [2]; 50 °C, 6 h
  % Residual Activity of NNS5-6 AMP against P. aeruginosa TISTR 357: 0.00 ± 0.00 %
P. aeruginosa TISTR 357 [2]; 50 °C, 12 h
  % Residual Activity of NNS5-6 AMP against P. aeruginosa TISTR 357: 0.00 ± 0.00 %
P. aeruginosa TISTR 357 [2]; 60 °C, 1 h
  % Residual Activity of NNS5-6 AMP against P. aeruginosa TISTR 357: 0.00 ± 0.00 %
P. aeruginosa TISTR 357 [2]; 60 °C, 6 h
  % Residual Activity of NNS5-6 AMP against P. aeruginosa TISTR 357: 0.00 ± 0.00 %
P. aeruginosa TISTR 357 [2]; 60 °C, 12 h
  % Residual Activity of NNS5-6 AMP against P. aeruginosa TISTR 357: 0.00 ± 0.00 %
P. aeruginosa TISTR 357 [2]; 80 °C, 1 h
  % Residual Activity of NNS5-6 AMP against P. aeruginosa TISTR 357: 0.00 ± 0.00 %
P. aeruginosa TISTR 357 [2]; 80 °C, 6 h
  % Residual Activity of NNS5-6 AMP against P. aeruginosa TISTR 357: 0.00 ± 0.00 %
P. aeruginosa TISTR 357 [2]; 80 °C, 12 h
  % Residual Activity of NNS5-6 AMP against P. aeruginosa TISTR 357: 0.00 ± 0.00 %
P. aeruginosa TISTR 357 [2]; 100 °C, 1 h
  % Residual Activity of NNS5-6 AMP against P. aeruginosa TISTR 357: 0.00 ± 0.00 %
P. aeruginosa TISTR 357 [2]; 100 °C, 6 h
  % Residual Activity of NNS5-6 AMP against P. aeruginosa TISTR 357: 0.00 ± 0.00 %
P. aeruginosa TISTR 357 [2]; 100 °C, 12 h
  % Residual Activity of NNS5-6 AMP against P. aeruginosa TISTR 357: 0.00 ± 0.00 %
P. aeruginosa TISTR 357 [2]; autoclave 121 °C, 15 psi, 15 min (same value in 1 h, 6 h and 12 h)
  % Residual Activity of NNS5-6 AMP against P. aeruginosa TISTR 357: 0.00 ± 0.00 %
P. aeruginosa TISTR 357 [2]; autoclave 121 °C, 15 psi, 30 min (same value in 1 h, 6 h and 12 h)
  % Residual Activity of NNS5-6 AMP against P. aeruginosa TISTR 357: 0.00 ± 0.00 %
P. aeruginosa TISTR 357 [3]
  MBC: 4 µg/mL
  MIC: 4 µg/mL
P. aeruginosa TISTR 357 [4]; with 1% SDS, 1 h
  % Residual Activity of NNS5-6 AMP against P. aeruginosa TISTR 357: 116.77 ± 1.80 %
P. aeruginosa TISTR 357 [4]; with 1% SDS, 6 h
  % Residual Activity of NNS5-6 AMP against P. aeruginosa TISTR 357: 122.52 ± 1.86 %
P. aeruginosa TISTR 357 [4]; with 1% SDS, 12 h
  % Residual Activity of NNS5-6 AMP against P. aeruginosa TISTR 357: 119.19 ± 1.53 %
P. aeruginosa TISTR 357 [4]; with 1% Triton X-100, 1 h
  % Residual Activity of NNS5-6 AMP against P. aeruginosa TISTR 357: 116.17 ± 0.60 %
P. aeruginosa TISTR 357 [4]; with 1% Triton X-100, 6 h
  % Residual Activity of NNS5-6 AMP against P. aeruginosa TISTR 357: 120.28 ± 1.53 %
P. aeruginosa TISTR 357 [4]; with 1% Triton X-100, 12 h
  % Residual Activity of NNS5-6 AMP against P. aeruginosa TISTR 357: 120.81 ± 1.53 %
P. aeruginosa TISTR 357 [5]; 1× MIC
  reduction rate of viable cells: 0.6297 log CFU/h
P. aeruginosa TISTR 357 [5]; 1× and 2× MIC
  treatment time to eradication of viable cells: 8 h
P. aeruginosa TISTR 357 [5]; 2× MIC
  reduction rate of viable cells: 0.6421 log CFU/h
α-chymotrypsin; 1 h
  % Residual Activity of NNS5-6 AMP against P. aeruginosa TISTR 357: 99.38 ± 0.95%
α-chymotrypsin; 6 h
  % Residual Activity of NNS5-6 AMP against P. aeruginosa TISTR 357: 99.42 ± 1.22%
α-chymotrypsin; 12 h
  % Residual Activity of NNS5-6 AMP against P. aeruginosa TISTR 357: 98.46 ± 0.88%
K. pneumoniae TISTR 1383 [6]; 1× MIC, until 24 h of treatment, growth only suppressed
  reduction of viable cells: up to 2 log (CFU/mL)
K. pneumoniae TISTR 1383 [6]; 1× MIC
  reduction rate of viable cells: 0.0579 log CFU/h
K. pneumoniae TISTR 1383 [6]; 2× MIC
  treatment time to eradication of viable cells: ≤ 8 h
  reduction rate of viable cells: 0.5715 log CFU/h
K. pneumoniae TISTR 1383 [7]
  MBC: 8 µg/mL
  MIC: 4 µg/mL
P. aeruginosa TISTR 357 [8]; pH 1.2, 1 h
  % Residual Activity of NNS5-6 AMP against P. aeruginosa TISTR 357: 89.62 ± 1.85 %
P. aeruginosa TISTR 357 [8]; pH 1.2, 6 h
  % Residual Activity of NNS5-6 AMP against P. aeruginosa TISTR 357: 83.83 ± 1.72 %
P. aeruginosa TISTR 357 [8]; pH 1.2, 12 h
  % Residual Activity of NNS5-6 AMP against P. aeruginosa TISTR 357: 81.14 ± 1.71 %
P. aeruginosa TISTR 357 [8]; pH 4.5, 1 h
  % Residual Activity of NNS5-6 AMP against P. aeruginosa TISTR 357: 97.31 ± 0.33%
P. aeruginosa TISTR 357 [8]; pH 4.5, 6 h
  % Residual Activity of NNS5-6 AMP against P. aeruginosa TISTR 357: 95.69 ± 1.75%
P. aeruginosa TISTR 357 [8]; pH 4.5, 12 h
  % Residual Activity of NNS5-6 AMP against P. aeruginosa TISTR 357: 95.62 ± 1.19%
P. aeruginosa TISTR 357 [8]; pH 6.8, 1 h
  % Residual Activity of NNS5-6 AMP against P. aeruginosa TISTR 357: 97.31 ± 3.33%
P. aeruginosa TISTR 357 [8]; pH 6.8, 6 h
  % Residual Activity of NNS5-6 AMP against P. aeruginosa TISTR 357: 96.46 ± 0.57%
P. aeruginosa TISTR 357 [8]; pH 6.8, 12 h
  % Residual Activity of NNS5-6 AMP against P. aeruginosa TISTR 357: 96.00 ± 0.57%
P. aeruginosa TISTR 357 [8]; pH 7.4, 1 h
  % Residual Activity of NNS5-6 AMP against P. aeruginosa TISTR 357: 98.65 ± 0.58%
P. aeruginosa TISTR 357 [8]; pH 7.4, 6 h
  % Residual Activity of NNS5-6 AMP against P. aeruginosa TISTR 357: 98.18 ± 1.15%
P. aeruginosa TISTR 357 [8]; pH 7.4, 12 h
  % Residual Activity of NNS5-6 AMP against P. aeruginosa TISTR 357: 98.48 ± 0.66%
P. aeruginosa TISTR 357 [8]; pH 8.0, 1 h
  % Residual Activity of NNS5-6 AMP against P. aeruginosa TISTR 357: 99.23 ± 1.15%
P. aeruginosa TISTR 357 [8]; pH 8.0, 6 h
  % Residual Activity of NNS5-6 AMP against P. aeruginosa TISTR 357: 97.22 ± 0.98%
P. aeruginosa TISTR 357 [8]; pH 8.0, 12 h
  % Residual Activity of NNS5-6 AMP against P. aeruginosa TISTR 357: 98.48 ± 0.87%
P. aeruginosa TISTR 357 [8]; pH 10.0, 1 h
  % Residual Activity of NNS5-6 AMP against P. aeruginosa TISTR 357: 98.85 ± 1.20%
P. aeruginosa TISTR 357 [8]; pH 10.0, 6 h
  % Residual Activity of NNS5-6 AMP against P. aeruginosa TISTR 357: 97.42 ± 0.82%
P. aeruginosa TISTR 357 [8]; pH 10.0, 12 h
  % Residual Activity of NNS5-6 AMP against P. aeruginosa TISTR 357: 98.10 ± 1.44%
P. aeruginosa TISTR 357 [8]; pH 12.0, 1 h
  % Residual Activity of NNS5-6 AMP against P. aeruginosa TISTR 357: 94.31 ± 0.68 %
P. aeruginosa TISTR 357 [8]; pH 12.0, 6 h
  % Residual Activity of NNS5-6 AMP against P. aeruginosa TISTR 357: 93.40 ± 0.78 %
P. aeruginosa TISTR 357 [8]; pH 12.0, 12 h
  % Residual Activity of NNS5-6 AMP against P. aeruginosa TISTR 357: 90.10 ± 2.38 %
P. aeruginosa TISTR 357 [8]; pH 14.0, 1 h
  % Residual Activity of NNS5-6 AMP against P. aeruginosa TISTR 357: 90.77 ± 0.88 %
P. aeruginosa TISTR 357 [8]; pH 14.0, 6 h
  % Residual Activity of NNS5-6 AMP against P. aeruginosa TISTR 357: 84.40 ± 1.15 %
P. aeruginosa TISTR 357 [8]; pH 14.0, 12 h
  % Residual Activity of NNS5-6 AMP against P. aeruginosa TISTR 357: 79.05 ± 1.75 %
Proteinase K; 1 h
  % Residual Activity of NNS5-6 AMP against P. aeruginosa TISTR 357: 96.08 ± 3.41 %
Proteinase K; 6 h
  % Residual Activity of NNS5-6 AMP against P. aeruginosa TISTR 357: 86.58 ± 1.22 %
Proteinase K; 12 h
  % Residual Activity of NNS5-6 AMP against P. aeruginosa TISTR 357: 83.62 ± 1.34 %
